Here are results for 31 compounds from US20060264460A1 (Wyeth, priority 2005, published 2006).

For this experiment, the target named is T1, human Cot/Tpl2 kinase (Homo sapiens, UniProt P41279).
T1 construct: human Cot/Tpl2 kinase construct encoding residues 30-398; 6His (N); made in house; host or cells: Sf9 insect cells, baculovirus system (BD Biosciences)
T1 sequence (P41279 30-398): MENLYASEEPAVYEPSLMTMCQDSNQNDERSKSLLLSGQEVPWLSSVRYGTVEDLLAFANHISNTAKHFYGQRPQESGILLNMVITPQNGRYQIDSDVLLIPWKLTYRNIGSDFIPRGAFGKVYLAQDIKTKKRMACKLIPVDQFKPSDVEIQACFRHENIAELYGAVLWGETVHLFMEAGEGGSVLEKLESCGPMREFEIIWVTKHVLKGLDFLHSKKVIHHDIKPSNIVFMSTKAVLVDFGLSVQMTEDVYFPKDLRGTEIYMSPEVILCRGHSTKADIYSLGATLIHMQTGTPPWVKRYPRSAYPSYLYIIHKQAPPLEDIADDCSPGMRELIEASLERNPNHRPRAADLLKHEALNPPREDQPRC
The experiment can be described thus: Tpl2/Cot kinase assay: GST-MEK1 phosphorylation detected by ELISA (DELFIA Eu). It is filed as biochemical. The settings on record: 0.4 nM Tpl2, 35 nM GST-MEK1, 50 uM ATP, 1 h at 30° C. An outline of the steps: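 His-tagged human Tpl2 from Sf9 cells, Ni-affinity and size-exclusion purified (monomer). 0.4 nM Tpl2 with 35 nM GST-MEK1, 50 uM ATP, MOPS pH 7.2, 1% DMSO, 1 h at 30° C; EDTA stop. MEK1 Ser217/221 phosphorylation detected by anti-phospho-MEK1 and Eu-labelled secondary ELISA; IC50 fitted.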
In general terms: ELISA stands for enzyme-linked immunosorbent assay.
In general, IC50 refers to the concentration at which inhibition is half-maximal. Read a high IC50 as lower potency. Take `N#Cc1cnc2c(F)cc(NCc3ccn[nH]3)cc2c1Nc1ccc(F)c(Cl)c1` [Example 267, 4-[(3-chloro-4-fluorophenyl)amino]-8-fluoro-6-[(1H-pyrazol-5-ylmethyl)amino]quinoline-3-carbonitrile]: the IC50 was found to be 100 nM.
`Cn1ccnc1CNc1cc(F)c2ncc(C#N)c(Nc3ccc(F)c(Cl)c3)c2c1` [Example 268, 4-[(3-Chloro-4-fluorophenyl)amino]-8-fluoro-6-{[(1-methyl-1H-imidazol-2-yl)methyl]amino}quinoline-3-carbonitrile] yielded an IC50 of 12 nM.
`Cc1c(CNc2cc(F)c3ncc(C#N)c(Nc4ccc(F)c(Cl)c4)c3c2)ncn1C` [Example 269, 4-[(3-chloro-4-fluorophenyl)amino]-6-{[(1,5-dimethyl-1H-imidazol-4-yl)methyl]amino}-8-fluoroquinoline-3-carbonitrile] yielded an IC50 of 16 nM.
`N#Cc1cnc2c(F)cc(NCc3cc[n+]([O-])cc3)cc2c1Nc1ccc(F)c(Cl)c1` [Example 270, 4-[(3-Chloro-4-fluorophenyl)amino]-8-fluoro-6-{[(1-oxidopyridin-4-yl)methyl]amino}quinoline-3-carbonitrile] yielded an IC50 of 100 nM.
For the compound `N#Cc1cnc2c(Cl)cc(NCc3cc[n+]([O-])cc3)cc2c1Nc1ccc(F)c(Cl)c1` [Example 271, 8-Chloro-4-[(3-chloro-4-fluorophenyl)amino]-6-{[(1-oxidopyridin-4-yl)methyl]amino}quinoline-3-carbonitrile], 54 nM corresponded to half-maximal inhibition (IC50).
`N#Cc1cnc2c(Cl)cc(NCc3cncnc3)cc2c1Nc1ccc(F)c(Cl)c1` [Example 272, 8-Chloro-4-(3-chloro-4-fluoro-phenylamino)-6-[(pyrimidin-5-ylmethyl)-amino]-quinoline-3-carbonitrile] displayed an IC50 of 47 nM.
The compound `COc1ccc(CNc2cc(Cl)c3ncc(C#N)c(Nc4ccc(F)c(Cl)c4)c3c2)cc1OCCN1CCOCC1` [Example 273, 8-Chloro-4-[(3-chloro-4-fluorophenyl)amino]-6-{[4-methoxy-3-(2-morpholin-4-ylethoxy)benzyl]amino}quinoline-3-carbonitrile] showed an IC50 of 83 nM.
In turn, `N#Cc1cnc2c(Cl)cc(NCc3cccc(N4CCOCC4)n3)cc2c1Nc1ccc(F)c(Cl)c1` [Example 274, 8-chloro-4-[(3-chloro-4-fluorophenyl)amino]-6-{[(6-morpholin-4-ylpyridin-2-yl)methyl]amino}quinoline-3-carbonitrile] returned an IC50 of 35 nM.
`N#Cc1cnc2c(Cl)cc(NCc3ccc(C(F)(F)F)[n+]([O-])c3)cc2c1Nc1ccc(F)c(Cl)c1` [Example 275, 8-Chloro-4-[(3-chloro-4-fluorophenyl)amino]-6-({[1-oxido-6-(trifluoromethyl)pyridin-3-yl]methyl}amino)quinoline-3-carbonitrile] gave an IC50 of 370 nM.
As for `COc1c(C)cnc(CNc2cc(Cl)c3ncc(C#N)c(Nc4ccc(F)c(Cl)c4)c3c2)c1C` [Example 276, 8-chloro-4-[(3-chloro-4-fluorophenyl)amino]-6-{[(4-methoxy-3,5-dimethylpyridin-2-yl)methyl]amino}quinoline-3-carbonitrile], the figure is 4700 nM.
`COc1c(C)c[n+]([O-])c(CNc2cc(Cl)c3ncc(C#N)c(Nc4ccc(F)c(Cl)c4)c3c2)c1C` [Example 277, 8-Chloro-4-[(3-chloro-4-fluorophenyl)amino]-6-{[(4-methoxy-3,5-dimethyl-1-oxidopyridin-2-yl)methyl]amino}quinoline-3-carbonitrile] gave an IC50 of 66 nM.
`N#Cc1cnc2c(Cl)cc(NCc3ccnc4ccccc34)cc2c1Nc1ccc(F)c(Cl)c1` [Example 278, 8-Chloro-4-[(3-chloro-4-fluorophenyl)amino]-6-[(quinolin-4-ylmethyl)amino]quinoline-3-carbonitrile] gave a 50% inhibitory concentration (IC50) of 460 nM.
In turn, `N#Cc1cnc2c(Cl)cc(NCc3nnn[nH]3)cc2c1Nc1ccc(F)c(Cl)c1` [Example 279, 8-Chloro-4-[(3-chloro-4-fluorophenyl)amino]-6-[(1 H-tetrazol-5-ylmethyl)amino]quinoline-3-carbonitrile] registered an IC50 of 2.6 nM.
Compound `CNc1nc(SC)ncc1CNc1cc(Cl)c2ncc(C#N)c(Nc3ccc(F)c(Cl)c3)c2c1` [Example 280, 8-chloro-4-[(3-chloro-4-fluorophenyl)amino]-6-({[4-(methylamino)-2-(methylthio)pyrimidin-5-yl]methyl]amino)quinoline-3-carbonitrile] displayed an IC50 of over 40000 nM.
Compound `CSc1ncc(CNc2cc(Cl)c3ncc(C#N)c(Nc4ccc(F)c(Cl)c4)c3c2)cn1` [Example 281, 8-Chloro-4-[(3-chloro-4-fluorophenyl)amino]-6-({[2-(methylthio)pyrimidin-5-yl]methyl]amino)quinoline-3-carbonitrile] registered an IC50 of 42 nM.
Consider `CS(=O)(=O)c1nccc(CNc2cc(Cl)c3ncc(C#N)c(Nc4ccc(F)c(Cl)c4)c3c2)n1` [Example 282, 8-Chloro-4-[(3-chloro-4-fluorophenyl)amino]-6-({[2-(methylsulfonyl)pyrimidin-4-yl]methyl}amino)quinoline-3-carbonitrile], for which the IC50 was 23 nM.
Take `N#Cc1cnc2c(Cl)cc(NCCc3cnc[nH]3)cc2c1Nc1ccc(F)c(Cl)c1` [Example 283, 8-chloro-4-[(3-chloro-4-fluorophenyl)amino]-6-{[2-(1H-imidazol-5-yl)ethyl]amino}quinoline-3-carbonitrile]: the IC50 came out at 130 nM.
The compound `C[S+]([O-])c1cc(NCc2cnc[nH]2)cc2c(Nc3ccc(F)c(Cl)c3)c(C#N)cnc12` (stereo not shown) [Example 284, 4-[(3-chloro-4-fluorophenyl)amino]-6-[(1H-imidazol-5-ylmethyl)amino]-8-(methylsulfinyl)quinoline-3-carbonitrile] displayed an IC50 of 20 nM.
`CS(=O)(=O)c1cc(NCc2cnc[nH]2)cc2c(Nc3ccc(F)c(Cl)c3)c(C#N)cnc12` [Example 286, 4-[(3-chloro-4-fluorophenyl)amino]-6-[(1H-imidazol-5-ylmethyl)amino]-8-(methylsulfonyl)quinoline-3-carbonitrile] came in with an IC50 of 190 nM.
In turn, `CSc1cc(NCc2cnc[nH]2)cc2c(Nc3ccc(F)c(Cl)c3)c(C#N)cnc12` [Example 287, 4-[(3-chloro-4-fluorophenyl)amino]-6-[(1H-imidazol-5-ylmethyl)amino]-8-(methylthio)quinoline-3-carbonitrile] returned an IC50 of 340 nM.
Consider `COc1ccc(Cn2cc(CNc3cc(Br)c4ncc(C#N)c(Nc5ccc(F)c(Cl)c5)c4c3)nn2)cc1` [Example 289], for which the IC50 came out at 203 nM.
`N#Cc1cnc2c(Br)cc(NCc3nc(-c4ccccc4)n[nH]3)cc2c1Nc1ccc(F)c(Cl)c1` [Example 290, 8-Bromo-4-(3-chloro-4-fluoro-phenylamino)-6-[(5-phenyl-2H-[1,2,4]triazol-3-ylmethyl)-amino]-quinoline-3-carbonitrile] showed an IC50 of over 40000 nM.
Compound `N#Cc1cnc2c(Br)cc(NCc3cn(-c4ccc(C(=O)O)cc4)nn3)cc2c1Nc1ccc(F)c(Cl)c1` [Example 292, 4-(4-{[8-Bromo-4-(3-chloro-4-fluoro-phenylamino)-3-cyano-quinolin-6-ylamino]-methyl}-[1,2,3]triazol-1-yl)-benzoic acid] gave a 50% inhibitory concentration (IC50) of 3.5 nM.
The compound `CCOC(OCC)c1[nH]nnc1CNc1cc(Br)c2ncc(C#N)c(Nc3ccc(F)c(Cl)c3)c2c1` [Example 293, 8-Bromo-4-(3-chloro-4-fluoro-phenylamino)-6-[(5-diethoxymethyl-1H-[1,2,3]triazol-4-ylmethyl)-amino]-quinoline-3-carbonitrile] displayed an IC50 of 13 nM.
`N#Cc1cnc2c(Br)cc(NCc3nn[nH]c3CO)cc2c1Nc1ccc(F)c(Cl)c1` [Example 294, 8-Bromo-4-(3-chloro-4-fluoro-phenylamino)-6-[(5-hydroxymethyl-1H-[1,2,3]triazol-4-ylmethyl)-amino]-quinoline-3-carbonitrile] displayed an IC50 of 500 nM.
As to `N#Cc1cnc2c(Br)cc(NCc3nn[nH]c3CNCCO)cc2c1Nc1ccc(F)c(Cl)c1` [Example 295, 8-Bromo-4-(3-chloro-4-fluoro-phenylamino)-6-({5-[(2-hydroxy-ethylamino)-methyl]-1H-[1,2,3]triazol-4-ylmethyl}-amino)-quinoline-3-carbonitrile], the IC50 was found to be 67 nM.
Take `N#Cc1cnc2c(Br)cc(NCc3cn(CCN4CCCCC4)nn3)cc2c1Nc1ccc(F)c(Cl)c1` [Example 296, 8-Bromo-4-(3-chloro-4-fluoro-phenylamino)-6-{[1-(2-piperidin-1-yl-ethyl)-1H-[1,2,3]triazol-4-ylmethyl]-amino}-quinoline-3-carbonitrile]: the IC50 is 15 nM.
In turn, `N#Cc1cnc2c(Br)cc(NCc3cn(CCN4CCOCC4)nn3)cc2c1Nc1ccc(F)c(Cl)c1` [Example 297, 8-Bromo-4-(3-chloro-4-fluoro-phenylamino)-6-{[1-(2-morpholin-4-yl-ethyl)-1H-[1,2,3]triazol-4-ylmethyl]-amino}-quinoline-3-carbonitrile] registered an IC50 of 29 nM.
`N#Cc1cnc2c(Br)cc(NCc3cn(CC(=O)N4CCOCC4)nn3)cc2c1Nc1ccc(F)c(Cl)c1` [Example 298, 8-Bromo-4-(3-chloro-4-fluoro-phenylamino)-6-{[1-(2-morpholin-4-yl-2-oxo-ethyl)-1H-[1,2,3]triazol-4-ylmethyl]-amino}-quinoline-3-carbonitrile] yielded an IC50 of 38 nM.
The value for `N#Cc1cnc2c(Br)cc(NCc3ccoc3)cc2c1Nc1ccc(F)c(Cl)c1` [Example 299, 8-Bromo-4-(3-chloro-4-fluoro-phenylamino)-6-[(furan-3-ylmethyl)-amino]-quinoline-3-carbonitrile] was 480 nM.
`N#Cc1cnc2c(Br)cc(NCc3csnn3)cc2c1Nc1ccc(F)c(Cl)c1` [Example 302, 8-Bromo-4-(3-chloro-4-fluoro-phenylamino)-6-[([1,2,3]thiadiazol-4-ylmethyl)-amino]-quinoline-3-carbonitrile]: the IC50 is 21 nM.
